C1=Cc2cccc3cccc1c23 showed a solubility (mole fraction) (in ethanol, 278.1 K) of 0.00462, a solubility (mole fraction) (in ethanol, 283.53 K) of 0.00579 and a solubility (mole fraction) (in ethanol, 288.25 K) of 0.00709. The solubility (mole fraction) (in ethanol, 293.25 K) was 0.00891, the solubility (mole fraction) (in ethanol, 298.2 K) was 0.0108 and the solubility (mole fraction) (in ethanol, 303.2 K) was 0.0133. It also gave a solubility (mole fraction) (in ethanol, 308.2 K) of 0.0165, a solubility (mole fraction) (in ethanol, 313.05 K) of 0.0197 and a solubility (mole fraction) (in ethanol, 318.25 K) of 0.0245. The solubility (mole fraction) (in ethanol, 323.15 K) was 0.0296, the solubility (mole fraction) (in isopropanol, 278.3 K) was 0.00469 and the solubility (mole fraction) (in isopropanol, 283.07 K) was 0.00592. It also gave a solubility (mole fraction) (in isopropanol, 288.33 K) of 0.0077, a solubility (mole fraction) (in isopropanol, 293.2 K) of 0.00967 and a solubility (mole fraction) (in isopropanol, 298.07 K) of 0.012. For the same molecule, the solubility (mole fraction) (in isopropanol, 303.3 K) was 0.0152, the solubility (mole fraction) (in isopropanol, 308.05 K) was 0.0189 and the solubility (mole fraction) (in isopropanol, 312.95 K) was 0.0236. The solubility (mole fraction) (in isopropanol, 318.4 K) was 0.0302, the solubility (mole fraction) (in isopropanol, 323.25 K) was 0.0372 and the solubility (mole fraction) (in n-butanol, 278.25 K) was 0.0101. For the same molecule, the solubility (mole fraction) (in n-butanol, 283.05 K) was 0.0122, the solubility (mole fraction) (in n-butanol, 288.05 K) was 0.0154 and the solubility (mole fraction) (in n-butanol, 293.25 K) was 0.019. The solubility (mole fraction) (in n-butanol, 298.25 K) was 0.0237, the solubility (mole fraction) (in n-butanol, 303.15 K) was 0.029 and the solubility (mole fraction) (in n-butanol, 308.1 K) was 0.0349. For the same molecule, the solubility (mole fraction) (in n-butanol, 313.2 K) was 0.0427, the solubility (mole fraction) (in n-butanol, 318.05 K) was 0.0525 and the solubility (mole fraction) (in n-butanol, 323.05 K) was 0.0639. It also gave a solubility (mole fraction) (in toluene, 278.47 K) of 0.104, a solubility (mole fraction) (in toluene, 283.33 K) of 0.122 and a solubility (mole fraction) (in toluene, 288.1 K) of 0.142. It also gave a solubility (mole fraction) (in toluene, 293.15 K) of 0.167, a solubility (mole fraction) (in toluene, 298.23 K) of 0.194 and a solubility (mole fraction) (in toluene, 303.15 K) of 0.224. For the same molecule, the solubility (mole fraction) (in toluene, 307.95 K) was 0.256, the solubility (mole fraction) (in toluene, 312.95 K) was 0.299 and the solubility (mole fraction) (in toluene, 318.3 K) was 0.346. It also gave a solubility (mole fraction) (in toluene, 323.2 K) of 0.398.
